Measurements as given in patent US10160755B2 (Plexxikon Inc., priority 2015, dated 2018).

Target: T1, BA/F3-FLT3-ITD + F691L cells (Homo sapiens, UniProt P36888, F691L, cells depend on it, form not given)
T1 sequence (P36888 1-993 F691L): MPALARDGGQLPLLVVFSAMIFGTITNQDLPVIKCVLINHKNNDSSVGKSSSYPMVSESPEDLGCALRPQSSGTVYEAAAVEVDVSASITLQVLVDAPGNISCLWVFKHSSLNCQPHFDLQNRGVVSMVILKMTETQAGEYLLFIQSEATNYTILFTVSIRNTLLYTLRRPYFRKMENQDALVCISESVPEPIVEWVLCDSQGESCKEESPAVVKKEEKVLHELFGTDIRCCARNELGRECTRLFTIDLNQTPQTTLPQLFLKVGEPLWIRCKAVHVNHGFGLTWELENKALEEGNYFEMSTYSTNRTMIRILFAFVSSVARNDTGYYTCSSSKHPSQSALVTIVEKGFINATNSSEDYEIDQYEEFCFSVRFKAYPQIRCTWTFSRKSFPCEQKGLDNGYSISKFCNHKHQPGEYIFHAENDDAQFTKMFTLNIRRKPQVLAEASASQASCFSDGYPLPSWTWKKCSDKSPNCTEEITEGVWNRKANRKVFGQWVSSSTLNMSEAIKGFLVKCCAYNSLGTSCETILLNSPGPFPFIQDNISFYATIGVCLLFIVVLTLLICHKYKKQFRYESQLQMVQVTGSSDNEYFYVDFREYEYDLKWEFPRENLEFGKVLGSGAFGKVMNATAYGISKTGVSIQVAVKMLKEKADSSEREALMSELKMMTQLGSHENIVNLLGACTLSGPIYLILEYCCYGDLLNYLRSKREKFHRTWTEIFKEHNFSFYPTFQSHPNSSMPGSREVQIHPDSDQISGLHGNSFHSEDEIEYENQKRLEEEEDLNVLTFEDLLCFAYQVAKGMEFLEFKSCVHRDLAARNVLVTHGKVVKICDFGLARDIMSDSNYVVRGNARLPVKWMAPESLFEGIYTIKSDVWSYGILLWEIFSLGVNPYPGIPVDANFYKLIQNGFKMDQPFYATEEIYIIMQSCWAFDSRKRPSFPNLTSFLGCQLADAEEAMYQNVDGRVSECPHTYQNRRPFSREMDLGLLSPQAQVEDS
Test: BA/F3-FLT3-ITD + F691L cell proliferation assay (CellTiter-Glo)
Format: cell-based, murine
Conditions: BaF3 FLT3 ITD/F691L cells; read-out: Cell Activity (IC50 μM) BaF3_FLT3_ITD/F691L
Method in brief: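 Three-day growth assay, IC50 from CellTiter-Glo ATP luminescence vs concentration. Compounds at 10 to 0.0046 μM (1:3 steps, final DMSO 0.2%) on 1×10^4 cells/well. Cells are IL-3-independent BA/F3 lines engineered to express full-length FLT3-ITD with the D835Y or the F691L mutation.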

GI50	Structure (SMILES)
0.0001 to 1 µM	c1cc(N2CCCCC2)ncc1-c1cnc2[nH]cc(-c3ccc4ncn(C5CCCNC5)c4c3)c2n1 (centres unmarked) [P-348, 7-[3-(3-piperidyl)benzimidazol-5-yl]-2-[6-(1-piperidyl)-3-pyridyl]-5H-pyrrolo[2,3-b]pyrazine]
0.0001 to 1 µM	Cc1ncc(C#Cc2cnc3[nH]cc(-c4ccc5ncn(C(C)(C)C)c5c4)c3n2)cn1 [P-284, 7-(3-tert-butylbenzimidazol-5-yl)-2-[2-(2-methylpyrimidin-5-yl)ethynyl]-5H-pyrrolo[2,3-b]pyrazine]
0.0001 to 1 µM	COc1cc(C#Cc2cnc3[nH]cc(-c4ccc5ncn(C(C)(C)C)c5c4)c3n2)ccn1 [P-279, 7-(1-(tert-butyl)-1H-benzo[d]imidazol-6-yl)-2-((2-methoxypyridin-4-yl)ethynyl)-5H-pyrrolo[2,3-b]pyrazine]
0.0001 to 1 µM	CC(C)(C)n1cnc2ccc(-c3c[nH]c4ncc(-c5ccnc(C#N)c5)cc34)cc21 [P-291, 4-[3-(3-tert-butylbenzimidazol-5-yl)-1H-pyrrolo[2,3-b]pyridin-5-yl]pyridine-2-carbonitrile]

The next lines start with the compound.

Structure (SMILES)	GI50
c1cc(N2CCOCC2)ncc1-c1cnc2[nH]cc(-c3ccc4ncn(C5CCCNC5)c4c3)c2c1 (centres unmarked) [P-321, 4-[5-[3-[3-(3-piperidyl)benzimidazol-5-yl]-1H-pyrrolo[2,3-b]pyridin-5-yl]-2-pyridyl]morpholine]	0.0001 to 1 µM
O=S1(=O)CCCCN1c1cc(-c2cnc3[nH]cc(-c4ccc5ncn(C6CCCNC6)c5c4)c3n2)ccn1 (centres unmarked) [P-310, 2-[4-[7-[3-(3-piperidyl)benzimidazol-5-yl]-5H-pyrrolo[2,3-b]pyrazin-2-yl]-2-pyridyl]thiazinane 1,1-dioxide]	0.0001 to 1 µM
CN1CCN(c2ccc(-c3cnc4[nH]cc(-c5ccc6ncn(C7CCCNC7)c6c5)c4n3)cc2)CC1 (centres unmarked) [P-344, 2-[4-(4-methylpiperazin-1-yl)phenyl]-7-[3-(3-piperidyl)benzimidazol-5-yl]-5H-pyrrolo[2,3-b]pyrazine]	0.0001 to 1 µM
CN1CCN(c2ccc(-c3cnc4[nH]cc(-c5ccc6ncn(C(C)(C)C)c6c5)c4n3)cc2)CC1 [P-341, 7-(3-tert-butylbenzimidazol-5-yl)-2-[4-(4-methylpiperazin-1-yl)phenyl]-5H-pyrrolo[2,3-b]pyrazine]	0.0001 to 1 µM
